Read-outs that look alike come from different tables or passages of the source.
Legend:
[1] = Plasma pharmacokinetics of lesogaberan during 24-h dosing; assay type: in vivo, human; conditions: for AUC(0-t) / Cmax / Tmax: human, oral, plasma; for AUC(0-t): modified-release capsules, read-out: AUC (0–24 h), geometric mean
Method: Blood samples were taken 1 h before the first administration of each dose, and at regular intervals during the 24-h period after the first administration of each dose, to assess the concentration of lesogaberan in plasma over time. […]

[2] = test system: patients with GERD who had a partial response to PPI treatment; experiment: Safety and tolerability assessments; assay type: in vivo, human
Method: Sitting and orthostatic blood pressure and pulse rate were also assessed pre-dose and 2 h after the first dose of lesogaberan or placebo at each treatment visit. Patients ate meals (standardized primarily according to fat content and pH) approximately 1 h after each dose of study medication or placebo, and at the same time points during each study period. Patients were monitored for adverse events from the first dose administration until the follow-up visit 5–10 days after receiving the last dose. The active treatment period for each dose was defined as the time from the first dose of study drug to 24 h after the second dose of study drug in each treatment period. Patients also underwent active questioning to determine whether they experienced syncope, or feeling faint, lightheadedness, dizziness or paraesthesia before study treatment started and after removing the impedance–pH catheter. A 12-lead digital electrocardiogram (ECG) was scheduled at the screening visit, before and 2 h after the first dose of lesogaberan or placebo at each treatment visit, and at the follow-up visit. Blood and urine samples were taken at the pre-entry visit (full laboratory screen), and before and 24 h after the first dose of lesogaberan or placebo at each treatment visit (reduced laboratory screen) to assess clinical chemistry and haematology, and to screen for indications of drug abuse.
The efficacy evaluation of the different doses of lesogaberan was based on data from all patients not affected by major protocol deviations and violations relevant to the analysis of a specific variable. The safety analysis set comprised all patients who received at least one dose of lesogaberan or placebo, and for whom post-dose data were available.

[3] = test system: patients with GERD who had a partial response to PPI treatment; experiment: GERD symptoms recorded by data logger and diary card during 24-h measurement; assay type: in vivo, human
Method: Impedance–pH readings were analysed by one investigator (JP) using dedicated software (BioVIEW Analysis®, version 5.5.4; Sandhill Scientific Inc.) and were then checked manually. This was performed in a blinded manner and the results were used to determine the number of reflux episodes, defined as a period when impedance decreased to less than 50% of baseline (liquid episode) or increased to more than 150% of baseline (gas episode), propagating […] from the most distal channel. Acid, weakly acid and non-acid reflux episodes were defined as episodes lasting longer than 5 s with a pH of < 4, 4.0–6.5 and > 6.5, respectively. The decision to use a cautious cut-off pH of 6.5 was taken in order to ensure that no measurements near to a pH of 7 would be erroneously categorized as weakly acidic. These definitions have previously been employed for studies of this type. During the 24-h period of ambulatory impedance–pH measurement, patients used a data logger and a diary card to record their meal intake and periods in supine position, as well as any GERD symptoms.

[4] = test system: patients with GERD who have a partial response to PPI therapy; set-up: method as in PMID 20451523; conditions: 65 mg twice daily, partial responders to PPI therapy; cited from earlier work
[5] = test system: patients with a partial response to PPI treatment; set-up: method as in PMID 21402616; conditions: 65 mg twice daily add-on to PPIs, phase 2a; placebo 8%; cited from earlier work
[6] = test system: partial responders to PPI treatment; set-up: method as in earlier work; conditions: cited from earlier work
[7] = set-up: method as in PMID 21410297; conditions: approximately; cited from earlier work
[8] = 2 h after first dose, 30–240 mg

With NC[C@@H](F)C[PH](=O)O [lesogaberan, (R)-(3-amino-2-fluoropropyl) phosphinic acid] the “fraction of peak concentration (Cmax) remaining at the end of the wash-out period” value ([1]; 7–28-day washout, estimated from half-life) was ≤ 0.01%, the AUC(0-t) ([1]; 30 mg twice in 24 h, patients) was 5.25 µM·h and the AUC(0-t) ([1]; 90 mg twice in 24 h, patients) was 17.3 µM·h. The AUC(0-t) ([1]; 120 mg twice in 24 h, patients) was 22.2 µM·h, the AUC(0-t) ([1]; 240 mg twice in 24 h, patients) was 46.9 µM·h and the Cmax ([1]; 30 mg, evening dose, patients, read-out: C max evening, geometric mean) was 420 nM. For the same molecule, the Tmax ([1]; 30 mg, evening dose, patients, read-out: t max evening, geometric mean) was 2.2 h, the Cmax ([1]; 30 mg, morning dose, patients, read-out: C max morning, geometric mean) was 350 nM and the Tmax ([1]; 30 mg, morning dose, patients, read-out: t max morning, geometric mean) was 1.7 h. For the same molecule, the Cmax ([1]; 90 mg, evening dose, patients, read-out: C max evening, geometric mean) was 1680 nM, the Tmax ([1]; 90 mg, evening dose, patients, read-out: t max evening, geometric mean) was 1.9 h and the Cmax ([1]; 90 mg, morning dose, patients, read-out: C max morning, geometric mean) was 1300 nM. The Tmax ([1]; 90 mg, morning dose, patients, read-out: t max morning, geometric mean) was 1.7 h, the Cmax ([1]; 120 mg, evening dose, patients, read-out: C max evening, geometric mean) was 2210 nM and the Tmax ([1]; 120 mg, evening dose, patients, read-out: t max evening, geometric mean) was 1.9 h. It also gave a Cmax ([1]; 120 mg, morning dose, patients, read-out: C max morning, geometric mean) of 1480 nM, a Tmax ([1]; 120 mg, morning dose, patients, read-out: t max morning, geometric mean) of 1.9 h and a Tmax ([1]; 240 mg, all four doses (30, 90, 120, 240 mg), morning and evening, read-out: geometric mean tmax) of 1.7 to 2.6 h. For the same molecule, the Cmax ([1]; 240 mg, evening dose, patients, read-out: C max evening, geometric mean) was 4180 nM, the Tmax ([1]; 240 mg, evening dose, patients, read-out: t max evening, geometric mean) was 2.6 h and the Cmax ([1]; 240 mg, morning dose, patients, read-out: C max morning, geometric mean) was 3310 nM. The Tmax ([1]; 240 mg, morning dose, patients, read-out: t max morning, geometric mean) was 1.7 h, the “adverse events during active dosing” value ([2]; 90 mg twice in 24 h) was “one patient reported headache and nausea” and the ECG readings ([2]; 12-lead ECG before and 2 h after first dose) was “No clinically significant changes in ECG readings”. For the same molecule, the “adverse events resulting in discontinuation” value ([2]; 30–240 mg twice in 24 h) was “no adverse events resulted in discontinuation”, the “serious adverse events during active dosing periods” value ([2]; 30–240 mg twice in 24 h, safety analysis set n = 27) was “No serious adverse events were reported” and the “blood pressure compared with placebo” value [2, 8] was “slight decreases in blood pressure”. For the same molecule, the “pulse rate compared with placebo” value [2, 8] was “Slight increases in pulse rate”, the “median number of symptoms reported during dosing” value (shortened to “median number”) ([3]; 30 mg twice in 24 h) was 1.0 symptom and the “median number” value ([3]; 90 mg twice in 24 h) was 1.0 symptom. For the same molecule, the “median number” value ([3]; 120 mg twice in 24 h) was 0 symptoms, the “median number” value ([3]; 240 mg twice in 24 h) was 0.5 symptoms and the “reduction in the mean number of total reflux episodes relative to placebo” value [4] was “approximately 35%”. The “proportion of responders (max one 24-h period with heartburn and/or regurgitation of not more than mild intensity during last 7 treatment days)” value [5] was 16%, the “effect on GERD symptoms” value ([6]; 240 mg, phase 2b, partial responders to PPI treatment) was “does not have a clinically important effect on GERD symptoms” and the “patients with reversible elevated alanine transaminase levels >5 times the upper limit of normal” value ([6]; phase 2b study) was 6 patients. The pharmacological half-life [7] was 11–13 h.
